# Target: T1, Recombinant autotaxin (Homo sapiens, UniProt Q13822)
# T1 construct: made in house; host or cells: Hi5 insect cells (baculovirus)
# Assay: Autotaxin assay (Amplex Red, LPC substrate)
# Assay type: biochemical
# Conditions: recombinant autotaxin, LPC substrate, Amplex Red detection; values given as upper bounds
# Summary of the method: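 Recombinant autotaxin (Hi5 baculovirus, 16 ng) pre-incubated with compound 30 min at 22° C, then reacted with 75 μM egg LPC for 90 min at 37° C. Choline released is coupled to H2O2 and Amplex Red fluorescence (ex 485/em 612 nm). IC50 from ten 1:3 dilutions from 30 μM, duplicates, normalised to 500 μM C14 LPA.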
row,IC50,Compound
1,< 1 µM,"O=C(OCc1cc(C(F)(F)F)cc(C(F)(F)F)c1)N1CCN(C2CCN(C(=O)c3ccc4[nH]c(=O)sc4c3)CC2)CC1 [Compound 163, 4-[1-(2-Oxo-2,3-dihydro-benzothiazole-6-carbonyl)-piperidin-4-yl]-piperazine-1-carboxylic acid 3,5-bis-trifluoromethyl-benzyl ester]"
2,< 10 µM,"O=C(CC(=O)N1CCC(N2CCN(C(=O)c3ccc4[nH]nnc4c3)CC2)CC1)c1ccc(C(F)(F)F)cc1 [Compound 164, 1-{4-[4-(1H-Benzotriazole-5-carbonyl)-piperazin-1-yl]-piperidin-1-yl}-3-(4-trifluoromethyl-phenyl)-propane-1,3-dione]"
3,< 1 µM,"O=C(OCc1cc(F)c(F)c(C(F)(F)F)c1)N1CCN(C2CCN(C(=O)c3ccc4[nH]nnc4c3)CC2)CC1 [Compound 165, 4-[1-(1H-Benzotriazole-5-carbonyl)-piperidin-4-yl]-piperazine-1-carboxylic acid 3,4-difluoro-5-trifluoromethyl-benzyl ester]"
4,< 1 µM,"O=C(OCc1ccc(OC(F)(F)F)c(Br)c1)N1CCN(C2CCN(C(=O)c3ccc4[nH]nnc4c3)CC2)CC1 [Compound 166, 4-[1-(1H-Benzotriazole-5-carbonyl)-piperidin-4-yl]-piperazine-1-carboxylic acid 3-bromo-4-trifluoromethoxy-benzyl ester]"
5,< 1 µM,"O=C(OCc1ccc(OC(F)F)cc1)N1CCN(C2CCN(C(=O)c3ccc4[nH]nnc4c3)CC2)CC1 [Compound 167, 4-[1-(1H-Benzotriazole-5-carbonyl)-piperidin-4-yl]-piperazine-1-carboxylic acid 4-difluoromethoxy-benzyl ester]"
6,< 1 µM,"O=C(OCc1ccc(SC(F)F)cc1)N1CCN(C2CCN(C(=O)c3ccc4[nH]nnc4c3)CC2)CC1 [Compound 168, 4-[1-(1H-Benzotriazole-5-carbonyl)-piperidin-4-yl]-piperazine-1-carboxylic acid 4-difluoromethylsulfanyl-benzyl ester]"
7,< 1 µM,"C[C@@H](OC(=O)N1CCN(C2CCN(C(=O)c3ccc4[nH]nnc4c3)CC2)CC1)c1cc(C(F)(F)F)cc(C(F)(F)F)c1 [Compound 169, 4-[1-(1H-Benzotriazole-5-carbonyl)-piperidin-4-yl]-piperazine-1-carboxylic acid (R)-1-(3,5-bis-trifluoromethyl-phenyl)-ethyl ester]"
8,< 10 µM,"Cc1ccc(C(OC(=O)N2CCN(C3CCN(C(=O)c4ccc5[nH]nnc5c4)CC3)CC2)(C(F)(F)F)C(F)(F)F)cc1 [Compound 170, 4-[1-(1H-Benzotriazole-5-carbonyl)-piperidin-4-yl]-piperazine-1-carboxylic acid 2,2,2-trifluoro-1-p-tolyl-1-trifluoromethyl-ethyl ester]"
9,< 10 µM,"C[C@H](OC(=O)N1CCN(C2CCN(C(=O)c3ccc4[nH]nnc4c3)CC2)CC1)c1cc(C(F)(F)F)cc(C(F)(F)F)c1 [Compound 171, 4-[1-(1H-Benzotriazole-5-carbonyl)-piperidin-4-yl]-piperazine-1-carboxylic acid (S)-1-(3,5-bis-trifluoromethyl-phenyl)-ethyl ester]"
10,< 10 µM,"CC(OC(=O)N1CCN(C2CCN(C(=O)c3ccc4[nH]nnc4c3)CC2)CC1)c1cc(C(F)(F)F)cc(C(F)(F)F)c1 (centres unmarked) [Compound 172, 4-[1-(1H-Benzotriazole-5-carbonyl)-piperidin-4-yl]-piperazine-1-carboxylic acid 1-(3,5-bis-trifluoromethyl-phenyl)-ethyl ester]"
11,< 10 µM,"Cc1oc(-c2ccccc2)cc1COC(=O)N1CCN(C2CCN(C(=O)c3ccc4[nH]nnc4c3)CC2)CC1 [Compound 173, 4-[1-(1H-Benzotriazole-5-carbonyl)-piperidin-4-yl]-piperazine-1-carboxylic acid 2-methyl-5-phenyl-furan-3-ylmethyl ester]"

# Source: US9452997B2, “Piperidine and piperazine derivatives as autotaxin inhibitors” (Merck Patent GmbH, priority 2009, dated 2016)
